Measurements: PubChem BioAssay (NCI)
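Test compounds were applied to cells in 96-well plates for 48 hours at 5 doses. GI50 = concentration required for 50% inhibition of growth. TGI: total growth inhibition.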

Key:
Assay in all cases: growth of human tumour cells (NCI), 48 h; in the data active = GI50 below about 0.43 µM; inactive = the rest
IGROV1 ovarian = test system: IGROV1 ovarian
HCT-116 colon = test system: HCT-116 colon
SF-295 CNS = test system: SF-295 CNS
SR leukemia = test system: SR leukemia
KM12 colon = test system: KM12 colon
K-562 leukemia = test system: K-562 leukemia
T-47D breast = test system: T-47D breast
RPMI-8226 leukemia = test system: RPMI-8226 leukemia
SNB-19 CNS = test system: SNB-19 CNS
A498 renal = test system: A498 renal
MCF7 breast = test system: MCF7 breast
786-0 renal = test system: 786-0 renal
HT29 colon = test system: HT29 colon
COLO 205 colon = test system: COLO 205 colon
OVCAR-3 ovarian = test system: OVCAR-3 ovarian
MALME-3M melanoma = test system: MALME-3M melanoma
NCI/ADR-RES ovarian = test system: NCI/ADR-RES ovarian
EKVX NSCLC = test system: EKVX NSCLC
HOP-92 NSCLC = test system: HOP-92 NSCLC
NCI-H23 lung = test system: NCI-H23 lung
SF-268 CNS = test system: SF-268 CNS
A549 NSCLC = test system: A549 NSCLC
SN12C renal = test system: SN12C renal
SK-OV-3 ovarian = test system: SK-OV-3 ovarian
MDA-MB-435 = test system: MDA-MB-435
MDA-MB-231 breast = test system: MDA-MB-231 breast
SK-MEL-28 melanoma = test system: SK-MEL-28 melanoma
HL-60(TB) leukemia = test system: HL-60(TB) leukemia
LOX IMVI melanoma = test system: LOX IMVI melanoma
OVCAR-8 ovarian = test system: OVCAR-8 ovarian
ACHN renal = test system: ACHN renal
RXF 393 renal = test system: RXF 393 renal
MOLT-4 leukemia = test system: MOLT-4 leukemia
M14 melanoma = test system: M14 melanoma
OVCAR-4 ovarian = test system: OVCAR-4 ovarian
SNB-75 CNS = test system: SNB-75 CNS
SK-MEL-2 melanoma = test system: SK-MEL-2 melanoma
DU-145 prostate = test system: DU-145 prostate
U251 CNS = test system: U251 CNS
BT-549 breast = test system: BT-549 breast
SW-620 colon = test system: SW-620 colon
UO-31 renal = test system: UO-31 renal
NCI-H226 lung = test system: NCI-H226 lung
NCI-H460 lung = test system: NCI-H460 lung
NCI-H522 lung = test system: NCI-H522 lung
HOP-62 NSCLC = test system: HOP-62 NSCLC
HCC-2998 colon = test system: HCC-2998 colon
UACC-62 melanoma = test system: UACC-62 melanoma
OVCAR-5 ovarian = test system: OVCAR-5 ovarian
HCT-15 colon = test system: HCT-15 colon
CCRF-CEM leukemia = test system: CCRF-CEM leukemia
PC-3 prostate = test system: PC-3 prostate
HS 578T breast = test system: HS 578T breast
UACC-257 melanoma = test system: UACC-257 melanoma
SF-539 CNS = test system: SF-539 CNS
CAKI-1 renal = test system: CAKI-1 renal
SK-MEL-5 melanoma = test system: SK-MEL-5 melanoma
TK-10 renal = test system: TK-10 renal
MDA-N = test system: MDA-N

CCCCCCCC(=O)Nc1nc2[nH]c(CN3CCN(Cc4cccc(I)c4)CC3)c(CN3CCN(Cc4cccc(I)c4)CC3)c2c(=O)[nH]1
1670 nM: TGI (IGROV1 ovarian) | TGI (EKVX NSCLC)
1910 nM: TGI (A549 NSCLC)
1590 nM: TGI (HCT-116 colon)
1900 nM: TGI (SK-MEL-5 melanoma)
1770 nM: TGI (M14 melanoma)
1510 nM: TGI (MCF7 breast)
3220 nM: TGI (CCRF-CEM leukemia)
1830 nM: TGI (BT-549 breast)
1440 nM: TGI (LOX IMVI melanoma)
1950 nM: TGI (NCI-H522 lung) | TGI (HS 578T breast)
1860 nM: TGI (NCI-H23 lung)
10800 nM: TGI (K-562 leukemia)
1350 nM: TGI (SNB-75 CNS)
1800 nM: TGI (U251 CNS)
1610 nM: TGI (ACHN renal) | TGI (SF-539 CNS)
1490 nM: TGI (RXF 393 renal) | TGI (CAKI-1 renal)
1500 nM: TGI (786-0 renal)
1650 nM: TGI (SF-268 CNS) | TGI (MDA-MB-231 breast)
2270 nM: TGI (HL-60(TB) leukemia)
2590 nM: TGI (MOLT-4 leukemia) | TGI (NCI-H226 lung)
1660 nM: TGI (UACC-62 melanoma)
2440 nM: TGI (UACC-257 melanoma)
1740 nM: TGI (NCI/ADR-RES ovarian)
1540 nM: TGI (HCC-2998 colon) | TGI (HCT-15 colon)
2130 nM: TGI (HT29 colon)
active: GI50 (SR leukemia) 238 nM
1410 nM: TGI (UO-31 renal)
1060 nM: TGI (SR leukemia)
1550 nM: TGI (SF-295 CNS) | TGI (MDA-MB-435)
1570 nM: TGI (OVCAR-5 ovarian)
1970 nM: TGI (COLO 205 colon)
1620 nM: TGI (SNB-19 CNS) | TGI (A498 renal) | TGI (OVCAR-3 ovarian) | TGI (OVCAR-4 ovarian) | TGI (TK-10 renal)
1750 nM: TGI (KM12 colon) | TGI (SN12C renal)
1700 nM: TGI (MALME-3M melanoma) | TGI (SK-OV-3 ovarian) | TGI (SK-MEL-28 melanoma)
1760 nM: TGI (NCI-H460 lung)
2060 nM: TGI (HOP-62 NSCLC)
inactive: GI50 (IGROV1 ovarian) 836 nM | GI50 (HCT-116 colon) 848 nM | GI50 (SF-295 CNS) 843 nM | GI50 (KM12 colon) 906 nM | GI50 (K-562 leukemia) 455 nM | GI50 (T-47D breast) 993 nM | GI50 (RPMI-8226 leukemia) 531 nM | GI50 (SNB-19 CNS) 858 nM | GI50 (A498 renal) 800 nM | GI50 (MCF7 breast) 793 nM | GI50 (786-0 renal) 793 nM | GI50 (HT29 colon) 998 nM | GI50 (COLO 205 colon) 972 nM | GI50 (OVCAR-3 ovarian) 879 nM | GI50 (MALME-3M melanoma) 866 nM | GI50 (NCI/ADR-RES ovarian) 882 nM | GI50 (EKVX NSCLC) 835 nM | GI50 (HOP-92 NSCLC) 668 nM | GI50 (NCI-H23 lung) 920 nM | GI50 (SF-268 CNS) 829 nM | GI50 (A549 NSCLC) 989 nM | GI50 (SN12C renal) 916 nM | GI50 (SK-OV-3 ovarian) 916 nM | GI50 (MDA-MB-435) 823 nM | GI50 (MDA-MB-231 breast) 875 nM | GI50 (SK-MEL-28 melanoma) 937 nM | GI50 (HL-60(TB) leukemia) 924 nM | GI50 (LOX IMVI melanoma) 762 nM | GI50 (OVCAR-8 ovarian) 1040 nM | GI50 (ACHN renal) 892 nM | GI50 (RXF 393 renal) 780 nM | GI50 (MOLT-4 leukemia) 934 nM | GI50 (M14 melanoma) 882 nM | GI50 (OVCAR-4 ovarian) 841 nM | GI50 (SNB-75 CNS) 691 nM | GI50 (SK-MEL-2 melanoma) 970 nM | GI50 (DU-145 prostate) 913 nM | GI50 (U251 CNS) 923 nM | GI50 (BT-549 breast) 885 nM | GI50 (SW-620 colon) 848 nM | GI50 (UO-31 renal) 717 nM | GI50 (NCI-H226 lung) 1160 nM | GI50 (NCI-H460 lung) 925 nM | GI50 (NCI-H522 lung) 901 nM | GI50 (HOP-62 NSCLC) 936 nM | GI50 (HCC-2998 colon) 823 nM | GI50 (UACC-62 melanoma) 901 nM | GI50 (OVCAR-5 ovarian) 852 nM | GI50 (HCT-15 colon) 812 nM | GI50 (CCRF-CEM leukemia) 1250 nM | GI50 (PC-3 prostate) 837 nM | GI50 (HS 578T breast) 882 nM | GI50 (UACC-257 melanoma) 1140 nM | GI50 (SF-539 CNS) 880 nM | GI50 (CAKI-1 renal) 816 nM | GI50 (SK-MEL-5 melanoma) 973 nM | GI50 (TK-10 renal) 828 nM
2250 nM: TGI (OVCAR-8 ovarian)
1810 nM: TGI (RPMI-8226 leukemia)
2050 nM: TGI (SK-MEL-2 melanoma)
1730 nM: TGI (DU-145 prostate)
1630 nM: TGI (SW-620 colon) | TGI (PC-3 prostate)
2180 nM: TGI (T-47D breast)
1400 nM: TGI (HOP-92 NSCLC)

C[C@H](CCC(=O)O)[C@H]1CC[C@H]2[C@@H]3[C@@H](O)C[C@@H]4C[C@H](O)CC[C@]4(C)[C@H]3C[C@H](O)[C@]12C
> 100000 nM: TGI (IGROV1 ovarian) | TGI (MDA-N) | TGI (HCT-116 colon) | TGI (SR leukemia) | TGI (KM12 colon) | TGI (K-562 leukemia) | TGI (T-47D breast) | TGI (RPMI-8226 leukemia) | TGI (SNB-19 CNS) | TGI (A498 renal) | TGI (MCF7 breast) | TGI (786-0 renal) | TGI (HT29 colon) | TGI (COLO 205 colon) | TGI (MALME-3M melanoma) | TGI (NCI/ADR-RES ovarian) | TGI (EKVX NSCLC) | TGI (HOP-92 NSCLC) | TGI (NCI-H23 lung) | TGI (SF-268 CNS) | TGI (A549 NSCLC) | TGI (SN12C renal) | TGI (MDA-MB-435) | TGI (MDA-MB-231 breast) | TGI (SK-MEL-28 melanoma) | TGI (HL-60(TB) leukemia) | TGI (LOX IMVI melanoma) | TGI (OVCAR-8 ovarian) | TGI (ACHN renal) | TGI (RXF 393 renal) | TGI (MOLT-4 leukemia) | TGI (M14 melanoma) | TGI (OVCAR-4 ovarian) | TGI (SNB-75 CNS) | TGI (SK-MEL-2 melanoma) | TGI (DU-145 prostate) | TGI (U251 CNS) | TGI (SW-620 colon) | TGI (NCI-H226 lung) | TGI (NCI-H460 lung) | TGI (NCI-H522 lung) | TGI (HOP-62 NSCLC) | TGI (HCC-2998 colon) | TGI (UACC-62 melanoma) | TGI (OVCAR-5 ovarian) | TGI (HCT-15 colon) | TGI (CCRF-CEM leukemia) | TGI (PC-3 prostate) | TGI (HS 578T breast) | TGI (UACC-257 melanoma) | TGI (SF-539 CNS) | TGI (CAKI-1 renal) | TGI (TK-10 renal)
